One compound from ChEMBL document CHEMBL1157940, “Culicinin D, an antitumor peptaibol produced by the fungus Culicinomyces clavisporus, strain LL-12I252” (J Nat Prod, 2006) can be followed below.

Experiment [1] in a line: Growth inhibition of PTEN deficient human MDA468 cells after 3 days by MTS assay. The class given is functional, cell-based. The note with it: MDA-MB-468, 72 h.
A short description of experiment [2]: Effect on PI3K/AKT/mTOR pathway in PTEN deficient human MDA468 cells assessed as inhibition of S6 phosphorylation after 16 hrs by Western blot. The class given is cell-based. The note with it: MDA-MB-468.
The next experiment relates to MDA-MB-435. The experiment can be described thus: Growth inhibition of human MDA435 overexpressing PTEN after 3 days by MTS assay. The note with it: MDA-MB-435, 72 h. The class given is functional.
The nature of experiment [3]: Effect on PI3K/AKT/mTOR pathway in PTEN deficient human MDA468 cells assessed as increase in p27Kip1 level at 0.01 to 0.1 ug/mL after 16 hrs by Western blot. The class given is cell-based. The following applies: MDA-MB-468.
A short description of experiment [4]: Effect on PI3K/AKT/mTOR pathway in PTEN deficient human MDA468 cells assessed as inhibition of 4EBP1 phosphorylation after 16 hrs by Western blot. The experiment is classed as cell-based. The note with it: MDA-MB-468.
Experiment [5] can be described thus: Effect on PI3K/AKT/mTOR pathway in PTEN deficient human MDA468 cells assessed as inhibition of S6K phosphorylation after 16 hrs by Western blot. The experiment is classed as cell-based. The note with it: MDA-MB-468.
Experiment [6] can be described thus: Effect on PI3K/AKT/mTOR pathway in PTEN deficient human MDA468 cells assessed as phosphorylated AKT level at 0.01 to 0.1 ug/mL after 16 hrs by Western blot. The following applies: MDA-MB-468. The experiment is classed as cell-based.
Experiment [7] in a line: Effect on PI3K/AKT/mTOR pathway in PTEN deficient human MDA468 cells assessed as inhibition of cyclin D3 level at 0.01 to 0.1 ug/mL after 16 hrs by Western blot. The experiment is classed as cell-based. The note with it: MDA-MB-468.

Values after ≈ are worked out from the molar mass of the structure shown. Active and inactive are the calls of the source. The rule behind the calls is not given here. Numbered stars: 1 amine (or outer) side, 2 acyl side, 3 side chain; on linkers, the order of the positions; unused ones are H or OH. Square brackets hold non-standard residues; d marks the D form. Peptide text beside a SMILES is read from it. * marks the point of attachment. X1 = CCC(=O)CC(O)CC(C)C[C@H](N[*:1])C(=O)[*:2]; X2 = CCCCCCC(C)C[C@@H](N[*:1])C(=O)[*:2]; Aib = CC(C)(N)C(=O)O; Butyryl = CCCC(=O)*; X3 = CC(CNCCO)N*; βAla = NCCC(=O)O Bounds are passed on as bounds.

`CCCCCCC(C)C[C@@H](NC(=O)C(C)(C)NC(=O)C(C)(C)NC(=O)[C@H](CC(C)CC(O)CC(=O)CC)NC(=O)[C@@H]1CCCN1C(=O)CCC)C(=O)N[C@@H](CC(C)C)C(=O)NC(C)(C)C(=O)N[C@@H](CC(C)C)C(=O)NCCC(=O)NC(C)CNCCO` (stereo partly drawn) [CULICININ D] (Butyryl-P[X1][Aib][Aib][X2]L[Aib]L[βAla]-X3): the IC50 was under 0.007 µg/mL in experiment [1] and 1.6 µg/mL (≈ 1.3 µM) in the experiment on MDA-MB-435. Further, the Activity result in experiment [2], in experiment [4] and in experiment [5] was “Dose-dependent effect” each time. For the same compound, the result in experiment [3] and in experiment [7] was Active. For the same compound, the result in experiment [6] was inactive.
